From patent publication US11479536B1 (King Abdulaziz University, priority 2022, dated 2022)

Key:
T47D spheroids [1] = assay: Live and dead assay of tumor spheroids, T47D; format: cell-based, human; conditions: 48 h post treatment, control 2.60±0.31%
Method: (§1) The Live/Dead assay contains a mixture of two staining fluorescent dyes that label live and dead cells to enable differentiation between them. The cell viability of the cells in response to the treatment with MAK compounds was examined. The cells were grown for 48 hours and treated with MAK compound for additional 48 hours, then Cytox RED solution reagent was added. After incubation at 37° C. under 5% CO2 for 1 hour, the samples were immediately analyzed by flow cytometry. Mean values and standard deviation of replicates were calculated in comparison to the control group.

T47D spheroids [2] = assay: Mitochondrial membrane potential assay (JC-1), T47D spheroids; format: cell-based, human; conditions: 48 h post treatment at IC50, control 15.67±2.05%
Method: The mitochondrial membrane potential was investigated in response to the treatment with MAK compounds. This assay depends on the measurement of the aggregate fluorescence for Tetraethylbenzimidazolylcarbocyanine iodide (JC-1). This cationic dye accumulates in the energized mitochondria, and the increase in aggregate fluorescence indicates mitochondrial […] while the reduction indicates the depolarization state.
After growing the cells and treating them with MAK compound for 48 hours, 2 μM of JC-1 final concentration was added and the mixture was incubated for 1 hour at 37° C. in presence of 5% CO2. Then, the samples were analyzed using flow cytometry. Mean values and standard deviation of replicates were calculated in comparison to the control group.

CYP3A4 = target: T1, CYP3A4 (Homo sapiens, UniProt P08684); assay: Inhibition assay of human CYP450 enzymes, 3A4; format: in vitro ADME
T1 construct: purchased Fisher Scientific; host or cells: insect supersomes
Method: The two compounds MAK-1 and MAK-6 were assessed for its ability to inhibit the three major human CYP450 enzymes, 3A4, 2D6 and 2C9. Assays were run in triplicate. Expressed enzymes in insect supersomes (Fisher Scientific, Waltham, Mass.) were used to minimize non-specific binding and membrane partitioning issues (McMasters et al., 2007). The 3A4 assay uses testosterone as a substrate and analysis was performed by LC/MS/MS on a Waters Xevo TQ instrument as described above using positive electrospray ionization. Assay acceptance criteria was 20% for all standards and 25% for the LLOQ. The 2D6 and 2C9 assays use fluorescent substrates (3-[2-(N,N-diethylamino)ethyl]-7-methoxy-4-methylcoumarin for 2D6; 7-methoxy-4-(trifluoromethyl)coumarin for 2C9) and were analyzed on an Envision plate reader. GraphPad® Prism v 5.04 was used for nonlinear fitting of data to generate IC50 values.

AMPK (A1/B1/G2) = target: T2, AMPK (A1/B1/G2) (Homo sapiens, UniProt Q13131+Q9UGJ0+Q9Y478); assay: Cell-free AMPK inhibition assay, AMPK (A1/B1/G2) Kinase Enzyme system; format: biochemical; conditions: recombinant full-length human AMPK
T2 construct: This system includes a recombinant full-length human AMPK enzyme; purchased Promega
Method: The inhibitory effect of serial concentrations of MAK compounds on AMPK Kinase activity was investigated using the highly sensitive AMPK (A1/B1/G2) Kinase Enzyme assay system (Promega, Madison Wis. USA). This system includes a recombinant full-length human AMPK enzyme and a substrate for the enzyme. The experiment was conducted according to the manufacturer's instructions in the provided protocol. Mean values of replicates were calculated in comparison to the control group.

MCF7 spheroids [3] = assay: Live and dead assay of tumor spheroids, MCF7; format: cell-based, human; conditions: 48 h post treatment, control 10.33±2.40%
Method: as §1

[4] = system: human skin fibroblasts (HSF); assay: Cytotoxicity on human skin fibroblasts (SRB method); format: cell-based
Method: In addition to have a good physicochemical profile, it is important for a studied lead to differentiate between cancer cells and highly proliferating non-cancerous cells. Therefore, we assessed compounds MAK-1 and MAK-6 for both the in silico and in vitro physicochemical characteristics as well as for cytotoxic effect on human skin fibroblasts (SKF) cell lines. Cytotoxicity was determined using Sulforhodamine B (SRB) method. Exponentially growing human skin fibroblast cells (Nawah Scientific, Cairo, Egypt) were collected using 0.25% Trypsin-EDTA and were then seeded in 96-well plates at a density of 1000-2000 cells/well in 10% FBS and penicillin/streptomycin supplemented RPMI-1640 medium. After 24 h, cells were treated with different concentrations of test compounds and incubated for 72 h at 37° C. in a humidified atmosphere containing 5% CO2. Next, the cells were fixed by adding trichloroacetic acid (TCA, 10% final conc. in wells) directly to the wells and incubated for 1 h at 4° C., then cells were washed with distilled water 5 times to remove excess TCA, media, serum proteins, and metabolites, followed by air drying. After that, the fixed cells were stained with 0.4% SRB dissolved in 1% acetic acid for 10 min at room temperature, and excess stain was removed by quickly rinsing with 1% acetic acid. The residual acetic acid was removed completely by air drying the plates for 24 h, and the dye was solubilized with Tris buffer (pH=7.4, 10 mM) for 5 min on a shaker at 1600 rpm. The optical density (OD) of each well was measured spectrophotometrically at 564 nm with an ELISA microplate reader (ChroMate-4300, FL, USA). The IC50 values were calculated according to the equation for Boltzman sigmoidal concentration—response curve using the nonlinear regression fitting models (Graph Pad, Prism Version 5).

MCF7 spheroids [5] = assay: Reactive oxygen species (CellROX) assay, MCF7 spheroids; format: cell-based, human; conditions: 48 h treatment, CellROX Green
Method: The CELLROX (Invitrogen) assay was used to measure the level of reactive oxygen species (ROS) in live cells. […] The technique was used to investigate the capability of tested compounds to induce intracellular ROS. After forming the spheroids for 48 hours and treating them for additional 48 hours with MAK compound, spheroids were incubated in culture medium with 500 nM CellROX for 60 minutes at 37° C. in presence of 5% CO2, and the samples were immediately analyzed on flow cytometry using 488-nm excitation for the CellROX® Green.

MCF7 spheroids [6] = assay: Cytotoxicity assay (MTT) in spheroid culture, MCF7; format: cell-based, human; conditions: for IC50: Homo sapiens, MCF7, 3D spheroid model, 48 h, MTT; for reduction of spheroid size: MCF7 spheroids treated at IC50 for 48 h, vs control
Method: (§2) 1×10^4 cells of each cell line (MCF7 and T47D) were seeded into ultra-low attachment 96 well plate at 37° C. and grown for 48 hours in DMEM media to result in the formation of spheroids. Then, the cells were subjected to the different treatment conditions before performing the assays.
(§3) The cytotoxic effects of MAK compounds were assessed against MCF7 and T47D cell lines using MTT cell viability assay. The cells were treated for 48 hours with different concentrations of each MAK compound and the control cells were subjected to the vehicle (0.1% DMSO). Then, 10% of 5 mg/mL MTT was added to each well containing treated or control cells, and mixture was incubated at 37° C. for 3 hours. After that, the MTT-containing media was replaced with 100 μL DMSO and incubated for 10 minutes at room temperature before measuring the absorbance for each well at 570 nm. According to the measured absorbance, the IC50 was calculated for each compound. All the experiments were performed in biological and experimental replicates.

T47D spheroids [7] = assay: Cytotoxicity assay (MTT) in spheroid culture, T47D; format: cell-based, human; conditions: for IC50: Homo sapiens, T47D, 3D spheroid model, 48 h, MTT; for reduction of spheroid size: T47D spheroids treated at IC50 for 48 h, vs control
Method: as §2, §3

T2 sequence (Q13131 whole entry): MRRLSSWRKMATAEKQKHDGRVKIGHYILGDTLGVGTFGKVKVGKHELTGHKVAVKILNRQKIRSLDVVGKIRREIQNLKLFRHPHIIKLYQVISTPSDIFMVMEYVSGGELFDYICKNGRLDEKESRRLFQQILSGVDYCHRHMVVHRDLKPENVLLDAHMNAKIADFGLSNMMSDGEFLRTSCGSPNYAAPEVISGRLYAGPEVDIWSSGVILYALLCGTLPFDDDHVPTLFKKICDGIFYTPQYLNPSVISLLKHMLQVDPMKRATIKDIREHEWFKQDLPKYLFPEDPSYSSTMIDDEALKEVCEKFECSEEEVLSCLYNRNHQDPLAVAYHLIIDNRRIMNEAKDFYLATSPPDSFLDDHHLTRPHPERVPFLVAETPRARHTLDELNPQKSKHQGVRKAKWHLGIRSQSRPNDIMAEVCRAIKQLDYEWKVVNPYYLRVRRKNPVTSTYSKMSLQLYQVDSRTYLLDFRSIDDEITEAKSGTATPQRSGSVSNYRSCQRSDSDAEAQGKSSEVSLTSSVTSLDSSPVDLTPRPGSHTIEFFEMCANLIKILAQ
T2 sequence (Q9Y478 whole entry partner): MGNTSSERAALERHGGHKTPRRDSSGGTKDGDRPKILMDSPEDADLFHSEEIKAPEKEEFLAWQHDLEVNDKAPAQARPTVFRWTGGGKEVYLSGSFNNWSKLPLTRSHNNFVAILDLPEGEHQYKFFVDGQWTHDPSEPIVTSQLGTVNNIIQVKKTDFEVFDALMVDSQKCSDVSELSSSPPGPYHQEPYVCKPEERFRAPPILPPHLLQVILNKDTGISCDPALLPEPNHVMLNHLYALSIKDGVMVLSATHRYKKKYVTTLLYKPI
T2 sequence (Q9UGJ0 whole entry partner): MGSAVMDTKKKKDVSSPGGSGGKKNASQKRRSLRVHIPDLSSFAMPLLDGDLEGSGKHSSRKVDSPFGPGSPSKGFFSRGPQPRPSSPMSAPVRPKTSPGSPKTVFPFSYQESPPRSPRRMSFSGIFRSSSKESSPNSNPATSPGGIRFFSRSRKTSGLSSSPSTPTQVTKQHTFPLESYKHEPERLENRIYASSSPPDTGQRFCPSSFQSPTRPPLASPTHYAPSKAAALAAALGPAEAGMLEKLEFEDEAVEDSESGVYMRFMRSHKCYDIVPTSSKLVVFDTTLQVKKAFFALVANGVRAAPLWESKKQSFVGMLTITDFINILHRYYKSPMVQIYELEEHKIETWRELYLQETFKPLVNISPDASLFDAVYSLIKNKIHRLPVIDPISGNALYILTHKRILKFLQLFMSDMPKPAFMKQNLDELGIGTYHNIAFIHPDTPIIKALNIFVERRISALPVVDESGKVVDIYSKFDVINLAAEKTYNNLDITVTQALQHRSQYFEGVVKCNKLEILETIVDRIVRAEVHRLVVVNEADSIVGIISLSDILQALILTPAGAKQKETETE
T1 sequence (P08684 whole entry): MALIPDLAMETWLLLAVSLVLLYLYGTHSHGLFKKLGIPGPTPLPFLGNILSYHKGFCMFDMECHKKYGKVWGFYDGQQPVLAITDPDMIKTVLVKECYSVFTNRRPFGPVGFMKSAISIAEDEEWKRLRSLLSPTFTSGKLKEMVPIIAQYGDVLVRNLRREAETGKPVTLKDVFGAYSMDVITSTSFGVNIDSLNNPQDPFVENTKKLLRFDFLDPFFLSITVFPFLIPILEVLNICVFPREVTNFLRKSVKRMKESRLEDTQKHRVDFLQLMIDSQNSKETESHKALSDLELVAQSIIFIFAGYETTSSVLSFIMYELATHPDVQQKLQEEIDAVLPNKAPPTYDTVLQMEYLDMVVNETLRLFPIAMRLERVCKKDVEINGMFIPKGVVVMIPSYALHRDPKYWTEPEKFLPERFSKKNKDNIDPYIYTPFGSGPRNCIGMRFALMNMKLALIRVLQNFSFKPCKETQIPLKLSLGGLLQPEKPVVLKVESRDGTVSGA

For `COc1cccc(C(=O)Nc2ccc(CC(=O)NCc3ccccc3)cc2)c1` [MAK-1, N-(4-(2-(benzylamino)-2-oxoethyl)phenyl)-3-methoxybenzamide], the “dead rate (dead cells), mean±SEM” value (T47D spheroids [1]) was 42.43±0.49%, the “depolarized cells (mitochondrial membrane), mean±SEM” value (T47D spheroids [2]) was 36.77±1.17% and the “inhibition of CYP3A4” value (CYP3A4; concentrations up to 10 μM) was “no inhibition”. For the same compound, the IC50 (AMPK (A1/B1/G2)) was 0.0048 µM, the “dead rate (dead cells), mean±SEM” value (MCF7 spheroids [3]) was 36.33±0.88% and the “normal cells inhibited at x-fold higher concentrations than MCF7 breast cancer cells” value ([4]; HSF vs MCF7) was 7 fold. For the same compound, the “ROS level, treatment vs control” value (MCF7 spheroids [5]) was 10%, the IC50 (MCF7 spheroids [6]) was 23.81 ± 0.16 µM and the “reduction of spheroid size” value (MCF7 spheroids [6]) was “noticeable reduction”. For the same compound, the IC50 (T47D spheroids [7]) was 13.9 ± 0.095 µM and the “reduction of spheroid size” value (T47D spheroids [7]) was “noticeable reduction”.
In the case of `O=C(Cc1ccc(NC(=O)c2cccc(Cl)c2)cn1)NCc1ccccc1` [MAK-6, N-(6-(2-(benzylamino)-2-oxoethyl)pyridin-3-yl)-3-chlorobenzamide], the “dead rate (dead cells), mean±SEM” value (T47D spheroids [1]) is reported as 37.97±0.27%, the “depolarized cells (mitochondrial membrane), mean±SEM” value (T47D spheroids [2]) is reported as 32.77±0.54% and the “inhibition of CYP3A4” value (CYP3A4; concentration not given) is reported as “did not display any inhibitory activity”. For the same compound, the IC50 (AMPK (A1/B1/G2)) was 0.0056 µM, the “dead rate (dead cells), mean±SEM” value (MCF7 spheroids [3]) was 34.27±0.49% and the “safety to normal cells (human skin fibroblasts)” value ([4]; HSF, SRB, 72 h) was “highly safe”. For the same compound, the “ROS level, treatment vs control” value (MCF7 spheroids [5]) was 6%, the IC50 (MCF7 spheroids [6]) was 22.9 ± 0.245 µM and the “reduction of spheroid size” value (MCF7 spheroids [6]) was “noticeable reduction”. For the same compound, the IC50 (T47D spheroids [7]) was 7.29 ± 0.085 µM and the “reduction of spheroid size” value (T47D spheroids [7]) was “noticeable reduction”.
